# Test results taken from US20230109839A1, “THERAPEUTIC AGENT FOR TAUOPATHIES” (SUMITOMO PHARMA CO., LTD., priority 2020, published 2023).
# Target: T1, human Nav1.1 (Homo sapiens, UniProt P35498)
# T1 construct: host or cells: HEK293
# Experiment: Amplification of Nav1.1-derived voltage-gated sodium current (Nav1.1 current), automated patch clamp (Test 1)
# Type: cell-based
# Conditions: Concentration for evaluation 1 μM; HEK293 cell line stably expressing human Nav1.1
# Procedure: Test 1: Evaluation of the Amplification of Nav1.1-Derived Voltage-Gated Sodium Current (Nav1.1 Current) by Using a Cell Line Stably Expressing Human Nav1.1
# (1) Preparation of Test Compound Solution
# Test compounds were prepared by dissolving in DMSO at 200 times of the concentration at evaluation, and diluting the obtained solution to twice the concentration of evaluation with an extracellular fluid (135 mmol/L NaCl, 4 mmol/L KCl, 1 mmol/L MgCl2, 5 mmol/L CaCl2, 5 mmol/L Glucose, 10 mmol/L HEPES).
# (2) Induction and Measurement of Nav1.1 Current
# A HEK293 cell line stably expressing human Nav1.1 (cat #CYL3009, Eurofins DiscoverX Products, LLC, Human Embryonic Kidney 293) was purchased, and used in the present test. Nav1.1 current was induced by stimulating Ramp wave voltage. Detection of current which accompanied with the stimulation of voltage was carried out by a patch-clamp voltage-clamp method using HTS automated patch clamp system (SynchroPatch 768PE, Nanion Technologies GmbH, Germany). Only cells with more than 500 pA of voltage-gated sodium channel current were used for the evaluation of the activity of compounds on Nav1.1 current because there was the possibility that currents derived from endogenous voltage-gated sodium channels accounted for large proportion in cells with less than 500 pA of voltage-gated sodium channel current which was induced by stimulating Ramp wave voltage.
# (3) Pharmacological Effect on Nav1.1 Current
# The effect of test compounds on the amplification of Nav1.1-derived voltage-gated sodium current was evaluated by using a cell line stably expressing human Nav1.1 and HTS automated patch clamp system. In other words, test compounds were added in an extracellular fluid containing 1% DMSO, and evaluated as a change of the peak value of Nav1.1 current and the area under the curve (AUC).
# (4) Method for Pharmacological Evaluation
# The Nav1.1 current amplification rates of test compounds were calculated by the following formula:
# Nav1.1 current amplification rate (%)=100×[the peak value of Nav1.1 current or the area under the curve after the addition of test compounds]/[the peak value of Nav1.1 current or the area under the curve before the addition of test compounds]−100
row,Structure (SMILES),Nav1.1 current amplification rate (%)
1,CCC1CC=C(c2cnc3cnn(CC(=O)Nc4ccc5ncnn5c4)c3n2)CC1 (centres unmarked) [Example 650],26
2,CC1(C)CCN(c2cnc3cnn(CC(=O)Nc4ccc5ncnn5c4)c3n2)CC1 [Example 654],23
3,CN(c1cnc2cnn(CC(=O)Nc3ccc4ccncc4c3)c2n1)C1CC1 [Example 732],152
4,CN(c1cnc2cnn(CC(=O)Nc3ccn4ncnc4c3)c2n1)C1CCC(F)(F)C1 (centres unmarked) [Example 628],14
5,CN(c1cnc2cnn(CC(=O)Nc3ccc4ncncc4c3)c2n1)C1CC1 [Example 728],71
6,CC1CCN(c2cnc3cnn(CC(=O)Nc4ccc5cncnc5c4)c3n2)CC1 [Example 642],252
7,CC(C)CCOc1ncc2cnn(CC(=O)Nc3ccn4ncnc4c3)c2n1 [Example 780],10

# Continued, values first:
row,Nav1.1 current amplification rate (%),Structure (SMILES)
1,19,CC1CC=C(c2ccc(=O)n(CC(=O)N3CCc4c(CNC5CCC5)cccc43)n2)CC1 (centres unmarked) [Example 315]
2,46,CC1CC=C(c2ccc(=O)n(CC(=O)N3CCc4c(-c5cc[nH]n5)ccc(F)c43)n2)CC1 (centres unmarked) [Example 292]
3,84,CC1CC=C(c2ccc(=O)n(CC(=O)N3CCc4c(CNC5COC5)cccc43)n2)CC1 (centres unmarked) [Example 313]
4,174,CC1CC=C(c2ccc(=O)n(CC(=O)Nc3cccc(-n4ccnc4)c3)n2)CC1 (centres unmarked) [Example 363]

# Same assay, conditions: Concentration for evaluation 3 μM; HEK293 cell line stably expressing human Nav1.1
row,Structure (SMILES),Nav1.1 current amplification rate (%)
1,CN(c1cnc2cnn(CC(=O)Nc3ccc4ccccc4n3)c2n1)C1CC1 [Example 717],23
2,Cc1cc(NC(=O)Cn2nc(C3=CCC(C)CC3)ccc2=O)cc2ncoc12 (centres unmarked) [Example 323],154
3,CC1CC=C(c2ccc(=O)n(CC(=O)Nc3ccn4cc(C5CC5)nc4c3)n2)CC1 (centres unmarked) [Example 334],255
4,Cc1ncc(-c2cccc3c2CCN3C(=O)Cn2nc(C3=CCC(C)CC3)ccc2=O)cn1 (centres unmarked) [Example 264],597

# Same assay, conditions: Concentration for evaluation 10 μM; HEK293 cell line stably expressing human Nav1.1
row,Structure (SMILES),Nav1.1 current amplification rate (%)
1,Cc1ccc(-c2nn(CC(=O)Nc3ccn4ccnc4c3)c(=O)c(C)c2C)cc1 [Example 156],33
2,N#Cc1ccc(NC(=O)Cn2nc(N3CCC4(CC4)C3)ccc2=O)cc1 [Example 25],163
3,N#Cc1ccc(NC(=O)Cn2nc(N3CCCC(C(F)(F)F)C3)ccc2=O)cc1 (centres unmarked) [Example 16],59
4,CC1CCN(c2ccc(=O)n(CC(=O)Nc3ccc4oc(=O)[nH]c4c3)n2)CC1 [Example 82],121
5,CCN(C)c1cnc2cnn(CC(=O)Nc3ccn4ncnc4c3)c2n1 [Example 623],25
6,CC12CCC(CN(c3ccc(=O)n(CC(=O)Nc4ccc(C#N)cc4)n3)C1)C2(C)C (centres unmarked) [Example 23],28
7,CC1CCN(c2ccc(=O)n(CC(=O)Nc3ccc(C(F)(F)F)nc3)n2)CC1 [Example 59],180
8,Cc1ccc(-c2ccc(=O)n(CC(=O)Nc3ccnnc3)n2)cc1 [Example 142],34
9,CC1CCN(c2ccc(=O)n(CC(=O)Nc3ccc(C(=O)N4CCCC4)cc3)n2)CC1 [Example 79],165
10,Cc1ccc(-c2ccc(=O)n(CC(=O)Nc3ccc4ocnc4c3)n2)s1 [Example 455],131
11,CC1CC(C)CN(c2ccc(=O)n(CC(=O)Nc3ccc(C#N)cc3)n2)C1 (centres unmarked) [Example 14],9

# Results, then the compound that gave them:
row,Nav1.1 current amplification rate (%),Structure (SMILES)
1,53,CC1CC=C(c2ccc(=O)n(CC(=O)N3CCc4c3ccnc4Cl)n2)CC1 (centres unmarked) [Example 247]
2,224,CC1CC=C(c2ccc(=O)n(CC(=O)N3CCN(c4cncc(F)c4)CC3)n2)C1 (centres unmarked) [Example 484]
3,292,CC1(C)CC=C(c2ccc(=O)n(CC(=O)N3CCN(c4cncc(F)c4)CC3)n2)CC1 [Example 444]
4,219,COc1cc(C2=CCC(C(F)(F)F)CC2)nn(CC(=O)N2CCN(c3cncc(F)c3)CC2)c1=O (centres unmarked) [Example 482]
5,24,O=C(Cn1nc(C2=CCCCC2)ccc1=O)Nc1ccn2ccnc2c1 [Example 458]
6,57,CC1CCN(c2ccc(=O)n(CC(=O)Nc3cncc(C#N)c3)n2)CC1 [Example 60]
7,175,CC1CC=C(c2ccc(=O)n(CC(=O)N3CC=C(c4cncnc4)CC3)n2)CC1 (centres unmarked) [Example 398]
8,173,CC1CC=C(c2ccc(=O)n(CC(=O)Nc3ccc(-c4cnn(C)c4)nc3)n2)CC1 (centres unmarked) [Example 375]

# Same assay, conditions: Concentration for evaluation 50 μM; HEK293 cell line stably expressing human Nav1.1
row,Structure (SMILES),Nav1.1 current amplification rate (%)
1,CC1CC=C(c2ccc(=O)n(CC(=O)Nc3ccc4nncn4c3)n2)CC1 (centres unmarked) [Example 341],202
2,CN(c1cnc2cnn(CC(=O)Nc3ccc4cccnc4n3)c2n1)C1CC1 [Example 712],78

# Same assay, conditions: HEK293, Concentration for evaluation 1 μM; HEK293 cell line stably expressing human Nav1.1; read-out: Nav1.1 current amplification rate (%)
row,Structure (SMILES),activation at 1 µM [%]
1,Cc1cc(NC(=O)Cn2ncc3ncc(N4CCC5(CC5)C(F)(F)C4)nc32)cc2ncnn12 [Example 741],61
2,O=C(Cn1ncc2ncc(N3CCC4(CC4)C(F)(F)C3)nc21)Nc1ccn2ccnc2c1 [Example 744],147
3,CN(c1cnc2cnn(CC(=O)Nc3ccc(C#N)nc3)c2n1)C1CC(C)(C)C1 [Example 756],104
4,CC1CC=C(c2cnc3cnn(CC(=O)N4CCN(c5cccnc5)CC4)c3n2)CC1 (centres unmarked) [Example 740],91
5,CN(c1cnc2cnn(CC(=O)Nc3ccc(C#N)nn3)c2n1)C1CC(C)(C)C1 [Example 761],43

# Same assay, conditions: HEK293, Concentration for evaluation 10 μM; HEK293 cell line stably expressing human Nav1.1; read-out: Nav1.1 current amplification rate (%)
row,Structure (SMILES),activation at 10 µM [%]
1,CN(c1cnc2cnn(CC(=O)N3Cc4ccc(Br)cc4C3)c2n1)C1CC2(CC2)C1 [Example 751],121

# Same assay, conditions: HEK293, concentration for evaluation 0.3 μM; HEK293 stably expressing human Nav1.1; read-out: Nav1.1 current amplification rate (%)
row,Structure (SMILES),activation at 0.3 µM [%]
1,CN(c1ncc2cnn(CC(=O)Nc3cnc4cccnc4c3)c2n1)C1CCCC1 [Example 849],57

# Same assay, conditions: HEK293, concentration for evaluation 1 μM; HEK293 stably expressing human Nav1.1; read-out: Nav1.1 current amplification rate (%)
row,Structure (SMILES),activation at 1 µM [%]
1,O=C(Cn1ncc2cnc(N3CCC4(CCC4)C3)nc21)Nc1ccn2ccnc2c1 [Example 834],26
2,CC1CCN(c2ncc3cnn(CC(=O)Nc4ccc(C#N)cn4)c3n2)CC1(F)F (centres unmarked) [Example 850],79
3,CC1CC=C(c2ccc3cnn(CC(=O)N4CCc5c(N6CCOCC6)cccc54)c3n2)CC1 (centres unmarked) [Example 882],88
4,CC1CCN(c2ncc3cnn(CC(=O)Nc4ccc(C#N)nc4)c3n2)CC1(F)F (centres unmarked) [Example 843],171

# Same assay, conditions: concentration for evaluation 1 μM; HEK293 stably expressing human Nav1.1
row,Structure (SMILES),Nav1.1 current amplification rate (%)
1,CN(CC1CC1)c1ncc2cnn(CC(=O)Nc3ccn4ncnc4c3)c2n1 [Example 800],55
2,CN(CC1(C)CC1)c1ncc2cnn(CC(=O)Nc3ccn4ncnc4c3)c2n1 [Example 804],93

# Same assay, conditions: concentration for evaluation 50 μM; HEK293 stably expressing human Nav1.1
row,Structure (SMILES),Nav1.1 current amplification rate (%)
1,CC1(C)CN(c2ccc3cnn(CC(=O)Nc4ccn5ncnc5c4)c3n2)C1 [Example 859],39
